In ChEMBL document CHEMBL1667808, “Substituted imidazole derivatives as novel cardiovascular agents” (Bioorg Med Chem Lett, 2011):
Calls of active or inactive are those of the source. The rule behind the calls is not given here.

Columns and labels:
[1] = system: Felis catus; assay: Antihypertensive activity in cat assessed as change in blood pressure at 2.5 mg/kg measured within 5 mins; format: functional
[2] = system: Felis catus; assay: Hypotensive activity in cat assessed as decrease carotid occlusion response at 2.5 mg/kg; format: functional, organism-based; set-up: dose 2.5 mg/kg
[3] = system: Felis catus; assay: Hypotensive activity in cat assessed as decrease norepinephrine response at 2.5 mg/kg; format: functional, organism-based; set-up: dose 2.5 mg/kg
[4] = system: Felis catus; assay: Antihypertensive activity in cat assessed as change in blood pressure at 2.5 mg/kg measured after 5 mins; format: functional
[5] = system: Felis catus; assay: Antihypertensive activity in cat assessed as change in heart rate at 2.5 mg/kg measured within 5 mins; format: functional
[6] = system: Felis catus; assay: Antihypertensive activity in cat assessed as change in heart rate at 2.5 mg/kg measured after 5 mins; format: functional

Structure (SMILES)	Activity [1] [mmHg]	Activity [2]	Activity [3]	Activity [4] [mmHg]	Activity [5] [bpm]	Activity [6]
COc1ccc(/C=N/NC(=O)Cn2c(-c3ccc(O)c(OC)c3)nc(-c3ccccc3)c2-c2ccccc2)cc1	-10	Active	inactive			
CN(C)c1ccc(-c2nnc(Cn3c(-c4ccccc4O)nc(-c4ccccc4)c3-c3ccccc3)o2)cc1	-15	inactive	inactive	5	-5	-5 bpm
COc1ccc(-c2nnc(Cn3c(-c4ccc(N(C)C)cc4)nc(-c4ccccc4)c3-c3ccccc3)o2)cc1	-15	Active	Active	-10	-6	-10 bpm
NNC(=O)Cn1c(-c2ccccc2O)nc(-c2ccccc2)c1-c1ccccc1	-22	inactive	inactive	-17	-21	inactive
COc1ccc(-c2nc(-c3ccccc3)c(-c3ccccc3)n2CC(=O)NN)cc1	-20	inactive	inactive	-5	-16	-21 bpm
COc1ccc(/C=N/NC(=O)Cn2c(-c3ccc(OC)cc3)nc(-c3ccccc3)c2-c2ccccc2)cc1	-5	Active	inactive	-5		
CN(C)c1ccc(/C=N/NC(=O)Cn2c(-c3ccccc3O)nc(-c3ccccc3)c2-c2ccccc2)cc1	-60	Active	inactive	-35	-8	-11 bpm
CN(C)c1ccc(-c2nc(-c3ccccc3)c(-c3ccccc3)n2CC(=O)NN)cc1	-30	Active	inactive	-30	-18	-27 bpm
COc1cc(-c2nnc(Cn3c(-c4ccc(N(C)C)cc4)nc(-c4ccccc4)c3-c3ccccc3)o2)ccc1O	-50	Active	inactive	-20	-6	-14 bpm
COc1ccc(/C=N/NC(=O)Cn2c(-c3ccc(N(C)C)cc3)nc(-c3ccccc3)c2-c2ccccc2)cc1	-45	Active	inactive	-50	-12	-14 bpm
COc1ccc(-c2nnc(Cn3c(-c4ccc(OC)cc4)nc(-c4ccccc4)c3-c3ccccc3)o2)cc1	-10	Active	Active	10		
COc1ccc(-c2nnc(Cn3c(-c4ccccc4)nc(-c4ccccc4)c3-c3ccccc3)o2)cc1	-50	Active	inactive	-10		
COc1ccc(-c2nnc(Cn3c(-c4ccc(O)c(OC)c4)nc(-c4ccccc4)c3-c3ccccc3)o2)cc1	-10	Active	inactive	-10		
COc1cc(-c2nc(-c3ccccc3)c(-c3ccccc3)n2CC(=O)NN)ccc1O	-30	Active	inactive	-20		inactive
NNC(=O)Cn1c(-c2ccccc2)nc(-c2ccccc2)c1-c1ccccc1	-25	inactive	inactive	-15	-6	-6 bpm
COc1ccc(/C=N/NC(=O)Cn2c(-c3ccccc3)nc(-c3ccccc3)c2-c2ccccc2)cc1	-15	inactive	inactive		-8	-11 bpm
COc1cc(/C=N/NC(=O)Cn2c(-c3ccc(N(C)C)cc3)nc(-c3ccccc3)c2-c2ccccc2)ccc1O	-80	Active	inactive	-55	-14	-20 bpm
